Consider 13 molecules from ChEMBL document CHEMBL5550168, “Structure-based design of multitargeting ChEs-MAO B inhibitors based on phenyl ring bioisosteres: AChE/BChE selectivity switch and drug-like characterization” (Eur J Med Chem, 2024).

The nature of series [1]: Chromatographic hydrophobicity index of compound at pH 7.4 by reversed-phase HPLC analysis. Format: ADME.
Series [2] is described as follows: Chromatographic hydrophobicity index of compound at pH 2.0 by reversed-phase HPLC analysis. It counts as ADME.
Series [3] is described as follows: Chromatographic hydrophobicity index of compound at pH 10.5 by reversed-phase HPLC analysis. It counts as ADME.
The nature of series [4]: in vitro. The following applies: mouse.
Series [5] can be described thus: Metabolic stability in mouse liver microsomes assessed as intrinsic clearance at 0.5 uM measured upto 30 mins in presence of NADPH by LC-MS/MS analysis. It counts as ADME, Microsome. The settings on record: read-out: CLH.
Series [6] is described as follows: Metabolic stability in mouse liver microsomes assessed as half life at 0.5 uM measured upto 30 mins in presence of NADPH by LC-MS/MS analysis. It counts as ADME, Microsome.
A short description of series [7]: Permeability of the compound assessed as membrane retention. It counts as ADME.

SMILES strings stand for the structures.

On to `CN(Cc1ccccc1)Cc1ccc(COc2ccc3c(CO)cc(=O)oc3c2)cc1`, for which the values for the CHI in series [1], in series [2] and in series [3] were 98, 53 and 102.1, respectively.
As for `CN(CCc1cccs1)Cc1ccc(COc2ccc3c(CO)cc(=O)oc3c2)cc1`, the CHI is 92.9 in series [1], 53.7 in series [2] and 97.8 in series [3].
On the same counts, the results for `CN(Cc1ccc(COc2ccc3c(CO)cc(=O)oc3c2)cc1)Cc1cncnc1` are 62.6, 35.9 and 61.4.
The corresponding values for `CN(Cc1ccc(COc2ccc3c(CO)cc(=O)oc3c2)cc1)Cc1cccnc1` are 70.6, 32.9 and 70.9.
Consider `CN(Cc1ccc(COc2ccc3c(CO)cc(=O)oc3c2)cc1)Cc1ccco1`, for which the CHI was 83.5 in series [1], 47.2 in series [2] and 85.1 in series [3].
The Papp is a coefficient for how fast a substance crosses the barrier. A low value points to slow passage. The half-life is the time in which the quantity being followed falls by half. For `CN(CCc1ccsc1)Cc1ccc(COc2ccc3c(CO)cc(=O)oc3c2)cc1`, in series [4], the Papp at 2 h, 20 µM amounted to 59 nm/s. Besides, the results for the CHI in series [1], in series [2] and in series [3] were 85.5, 54.3 and 95.2, respectively. Moreover, the microsomal CLint at 0.5 µM in series [5] is 103 µL/min/mg. Moreover, in series [6], the half-life at 0.5 µM stood at 13.5 min.
As to `CN(Cc1ccncc1)Cc1ccc(COc2ccc3c(CO)cc(=O)oc3c2)cc1`, the CHI is 32.3 in series [2] and 72 in series [3].
Regarding `CN(CCc1cccnc1)Cc1ccc(COc2ccc3c(CO)cc(=O)oc3c2)cc1`, the CHI is reported as 65.3 in series [1], 29.9 in series [2] and 69.3 in series [3]. Moreover, the microsomal CLint at 0.5 µM in series [5] came to 233 µL/min/mg. Moreover, in series [6], the half-life at 0.5 µM amounted to 5.97 min.
`CN(Cc1ccc(COc2ccc3c(CO)cc(=O)oc3c2)cc1)Cc1nccs1`: the values for the CHI in series [1], in series [2] and in series [3] were 76.7, 42.7 and 76.1, respectively.
Molecule `CN(Cc1ccc(COc2ccc3c(CO)cc(=O)oc3c2)cc1)Cc1ccsc1` yielded a Papp at 2 h, 20 µM in series [4] of 80 nm/s. The values for the CHI in series [1], in series [2] and in series [3] were 90.3, 50.7 and 95, respectively. Further, in series [5], the microsomal CLint at 0.5 µM came to 61.2 µL/min/mg. In series [6], the half-life at 0.5 µM was 22.7 min.
With `CN(Cc1ccc(COc2ccc3c(CO)cc(=O)oc3c2)cc1)Cc1cscn1`, the figures for the CHI in series [1], in series [2] and in series [3] were 68.3, 42.2 and 69.9, respectively.
On the same counts, the results for `CN(Cc1ccc(COc2ccc3c(CO)cc(=O)oc3c2)cc1)Cc1cccs1` are 96.5, 50.4 and 98.
For `CN(Cc1ccc(COc2ccc3c(CO)cc(=O)oc3c2)cc1)Cc1ncc[nH]1`, the CHI stood at 51.6 in series [1], 34.6 in series [2] and 50.7 in series [3]. In addition, the R% in series [7] is listed as ~ 50%.
